Experimental data reported in patent publication US20090233937A1 (TAKEDA PHARMACEUTICAL COMPANY LIMITED, priority 2008, published 2009).

These compounds were tested on human breast cancer cell BT-474 (assay: Inhibitory action on breast cancer cell BT-474 proliferation in vitro). Conditions: 120 h, BT-474 cells, cultured for 5 days with compound, SRB dye protein content.
Assay type: cell-based
Method: A suspension of human breast cancer cell BT-474 (100 μl (6,000 cells)) were plated in a 96-well microplate and cultured in an incubator (37° C., 5% carbon dioxide). On the following day, 100 μl of a solution of each test compound previously diluted serially in 2-fold, was added, and the cells were cultured for 5 days. After the culture medium containing the test compound was removed, the cells were washed and fixed with 50% trichloroacetic acid, after which a 0.4% (w/v) SRB dye solution (dissolved in 1% acetic acid) was added to stain as well as fix the cell protein (Skehan et al., Journal of the National Cancer Institute, Vol. 82, pp. 1107-1112, 1990). After washing with a 1% acetic acid solution, 100 μl of extract solution (10 mM, Tris buffer) was added to extract the dye and the absorbance was measured at a wavelength of 550 nm to quantify the amount of cells as protein content.

Compound	IC50 [nM]
OCCn1ccc2ncnc(Nc3ccc(Oc4cccc5sncc45)c(Cl)c3)c21 [Example 3, 2-(4-{[4-(1,2-benzoisothiazol-4-yloxy)-3-chlorophenyl]amino}-5H-pyrrolo[3,2-d]pyrimidin-5-yl)ethanol]	< 100
CC(=O)NCCn1ccc2ncnc(Nc3ccc(Oc4cccc5sncc45)c(Cl)c3)c21 [Example 7, N-[2-(4-{[4-(1,2-benzoisothiazol-4-yloxy)-3-chlorophenyl]amino}-5H-pyrrolo[3,2-d]pyrimidin-5-yl)ethyl]acetamide methanesulfonate]	< 100
CC(C)NC(=O)NCCn1ccc2ncnc(Nc3ccc(Oc4cccc5sncc45)c(Cl)c3)c21 [Example 54, 1-[2-(4-{[4-(1,2-benzoisothiazol-4-yloxy)-3-chlorophenyl]amino}-5H-pyrrolo[3,2-d]pyrimidin-5-yl)ethyl]-3-(1-methylethyl)urea methanesulfonate]	< 100
Cc1cc(Nc2ncnc3ccn(CCNC(=O)C(C)(C)CO)c23)ccc1Oc1cccc2sncc12 [Example 39, N-[2-(4-{[4-(1,2-benzoisothiazol-4-yloxy)-3-methylphenyl]amino}-5H-pyrrolo[3,2-d]pyrimidin-5-yl)ethyl]-3-hydroxy-2,2-dimethylpropanamide]	< 100
CC(C)(CO)C(=O)NCCn1ccc2ncnc(Nc3ccc(Oc4cccc5sncc45)c(F)c3)c21 [Example 11, N-[2-(4-{[4-(1,2-benzoisothiazol-4-yloxy)-3-fluorophenyl]amino}-5H-pyrrolo[3,2-d]pyrimidin-5-yl)ethyl]-3-hydroxy-2,2-dimethylpropanamide]	< 100
CC(C)(N)C(=O)NCCn1ccc2ncnc(Nc3ccc(Oc4cccc5sncc45)c(Cl)c3)c21 [Example 53, N-[2-(4-{[4-(1,2-benzoisothiazol-4-yloxy)-3-chlorophenyl]amino}-5H-pyrrolo[3,2-d]pyrimidin-5-yl)ethyl]-2-methylalaninamide dimethanesulfonate]	< 100

What follows are compounds tested against T1, EGFR kinase (EGFR intracellular domain) (Homo sapiens, UniProt P00533) (assay: Determination of EGFR kinase inhibitory activity). Conditions: compound at 1.0 μL (so in the source), [γ-32P]ATP, poly-Glu:Tyr (4:1) substrate.
T1 construct: made in house; host or cells: SF-21 insect cells infected with recombinant baculovirus BAC-EGFR
Assay type: biochemical
Design: concentration or dose not given beside the values
Method: Human EGFR gene was cloned by RT-PCR using total RNA prepared from A431 cells as a template. The primer used for RT-PCR was prepared in consideration of the information of nucleotide sequence (Genbank Accession No. X00588) of EGFR gene by adding a nucleotide sequence encoding DYKDDDD peptide and a restriction enzyme recognition sequence to a nucleotide sequence (corresponding to 2191-3819 of Genbank Accession No. X00588 as a base, 669-1210 amino acids of Genbank Accession No. NP_005219 as a protein) encoding the EGFR intracellular domain region such that the protein contains an N-terminal DYKDDDD peptide tag. The primer nucleotide sequence is shown below.
SF-21 cells were sown at 1×10^6 cells/mL in Sf-900II SFM medium (1 L, Invitrogen) containing 10% fetal bovine serum (trace), 50 mg/L gentamicin (Invitrogen) and 0.1% Pluronic F-68 (Invitrogen), and shaking culture was performed using a 2 L volume Erlenmeyer flask at 27° C., 100 rpm. After culturing for 24 hrs, recombinant baculovirus BAC-EGFR (13.4 mL) was added, and the mixture was further cultured for 3 days. The culture medium was centrifuged at 2,000 rpm for 5 min to give virus-infected cells. The infected cells were washed with a phosphate buffered saline (Invitrogen), centrifuged under the same conditions, and the cells were preserved at −80° C. The cryopreserved cells were thawed in ice, suspended in buffer A (50 mM Tris buffer (30 mL, pH 7.4) containing 20% glycerol, 0.15 M NaCl) supplemented with Complete Protease Inhibitor (Boehringer), and ruptured 3 times with a Polytron homogenizer (Kinematica) at 20,000 rpm for 30 sec. The ruptured solution was clarified by centrifugation at 40,000 rpm for 30 min, and filtered with a 0.45 μm filter. The filtrate was passed through a column packed with Anti-FLAG M2 Affinity Gel (4 mL, Sigma-Aldrich) at a flow rate of about 0.5 mL/min. The column was washed with buffer A, and eluted with buffer A containing 100 μg/mL of FLAG peptide. The eluent was concentrated with Vivaspin 20 (Vivascience) having a molecular weight cut off of 30K. The concentrate was purified by gel filtration using Hi Load 16/60 Superdex 200 pg (GE Healthcare Bioscience) equilibrated with buffer A. The fractions containing EGFR intracellular domain were collected and cryopreserved at −80° C.
EGFR kinase reaction was performed using a 96 well plate. As a buffer for kinase reaction, a buffer having a composition of 50 mM Tris-HCl (pH 7.5), 5 mM MnCl2, 2 mM dithiothreitol, 0.01% Tween-20 was used. The compound of the present invention was dissolved in dimethyl sulfoxide (DMSO), and diluted with the kinase reaction buffer so that DMSO concentration would be 0.1% during kinase reaction. This compound solution (10 μL) was mixed with a kinase reaction buffer (20 μL) containing EGFR intracellular domain (0.625 μg/mL) obtained in Experimental Example 2B and polypeptide substrate poly-Glu:Tyr (4:1) (Sigma Ltd., 12.5 μg/mL), and the mixture was stood at room temperature for 5 min. […] A kinase reaction was performed at room temperature for 10 min, and the kinase reaction was quenched by addition of 20% TCA solution (50 μL). The mixture after completion of the reaction was stood at room temperature for 30 min, and acid insoluble fractions in the mixture after completion of the reaction were collected in a 96 well GF/C filter plate (PerkinElmer) using a cell harvester (PerkinElmer). Thereafter, the filter containing the acid insoluble fractions was washed with 3% phosphoric acid solution. After washing, the filter plate was dried at 45° C. for 60 min, and 25 μL of MicroScinti 0 (PerkinElmer) was added. The radioactivity was measured using TopCount (PerkinElmer). EGFR kinase inhibitory rate (%) of the test compound was calculated by the following formula:
Inhibitory rate (%)=(1−(count of test compound−blank)÷(control−blank))×100

T1 sequence (P00533 669-1210): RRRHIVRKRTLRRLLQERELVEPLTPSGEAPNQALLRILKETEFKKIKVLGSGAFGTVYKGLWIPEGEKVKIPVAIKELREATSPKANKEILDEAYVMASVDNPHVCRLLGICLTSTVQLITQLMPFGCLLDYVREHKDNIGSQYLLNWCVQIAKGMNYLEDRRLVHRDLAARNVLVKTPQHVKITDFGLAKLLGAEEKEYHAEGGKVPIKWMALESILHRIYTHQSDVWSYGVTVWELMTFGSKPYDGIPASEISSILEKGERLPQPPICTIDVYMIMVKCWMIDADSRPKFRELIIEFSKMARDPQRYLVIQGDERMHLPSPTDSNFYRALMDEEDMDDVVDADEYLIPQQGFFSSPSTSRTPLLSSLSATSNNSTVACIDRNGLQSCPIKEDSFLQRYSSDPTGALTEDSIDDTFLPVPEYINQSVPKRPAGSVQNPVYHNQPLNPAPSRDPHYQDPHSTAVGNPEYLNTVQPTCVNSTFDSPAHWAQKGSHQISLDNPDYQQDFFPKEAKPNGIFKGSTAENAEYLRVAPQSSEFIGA

Compound	inhibitory rate (%) at 1.0 μL [%]
CS(=O)(=O)CC(=O)NCCn1ccc2ncnc(Nc3ccc(Oc4cccc5sncc45)c(Cl)c3)c21.CS(=O)(=O)O [Example 24, N-[2-(4-{[4-(1,2-benzoisothiazol-4-yloxy)-3-chlorophenyl]amino}-5H-pyrrolo[3,2-d]pyrimidin-5-yl)ethyl]-2-(methylsulfonyl)acetamide methanesulfonate]	100
CC(C)(CO)C(=O)NCCn1ccc2ncnc(Nc3ccc(Oc4cccc5sncc45)c(Cl)c3)c21 [Example 10, N-[2-(4-{[4-(1,2-benzoisothiazol-4-yloxy)-3-chlorophenyl]amino}-5H-pyrrolo[3,2-d]pyrimidin-5-yl)ethyl]-3-hydroxy-2,2-dimethylpropanamide]	98
OCCn1ccc2ncnc(Nc3ccc(Oc4cccc5sncc45)c(Br)c3)c21 [Example 45]	99
Cn1ccc2ncnc(Nc3ccc(Oc4cccc5sncc45)c(Cl)c3)c21 [Example 1, N-[4-(1,2-benzoisothiazol-4-yloxy)-3-chlorophenyl]-5-methyl-5H-pyrrolo[3,2-d]pyrimidin-4-amine]	99
CC(C)(N)CC(=O)NCCn1ccc2ncnc(Nc3ccc(Oc4cccc5sncc45)c(Cl)c3)c21 [Example 62, 3-amino-N-[2-(4-{[4-(1,2-benzoisothiazol-4-yloxy)-3-chlorophenyl]amino}-5H-pyrrolo[3,2-d]pyrimidin-5-yl)ethyl]-3-methylbutanamide]	99
CC(=O)NCCn1ccc2ncnc(Nc3ccc(Oc4cccc5nscc45)c(Cl)c3)c21 [Example 12, N-[2-(4-{[4-(2,1-benzoisothiazol-4-yloxy)-3-chlorophenyl]amino}-5H-pyrrolo[3,2-d]pyrimidin-5-yl)ethyl]acetamide]	95
